Earlier results in US9198859B2, “Concentrated mast cell stabilizing pharmaceutical formulations” (PARI Pharma GMBH, priority 2009, dated 2015).

Tests used:
[1] = system: influenza virus; details: mice
[2] = system: respiratory syncytial virus; details: mice
[3] = 6 months; nebulized 3 times daily IsoCrom (20 mg/2 ml) via eFlow; children

O=C(O)c1cc(=O)c2c(OCC(O)COc3cccc4oc(C(=O)O)cc(=O)c34)cccc2o1 [DSCG, disodium cromoglycate]
protection from death induced by influenza virus infection [1]: protected mice from death | protection against RSV induced illness [2]: protected against respiratory syncytial virus induced illness | therapeutic efficacy versus inhaled steroids [3]: as effective as inhaled steroids
